In publication PMC10909772 (Saudi Pharmaceutical Journal : SPJ, 2024):
Where two headings read alike, the source gives them in different places. Values belong to the compound of their own block, whether it stands above or below them.

Key:
xanthine oxidase [1] = molecular target: T1, xanthine oxidase (Bos taurus, UniProt P80457); details: cited from earlier work; for inhibition of the xanthine oxidase enzyme (in words): ref Mostafa et al., 2007
xanthine oxidase [2] = molecular target: T1, xanthine oxidase; assay: Kinetics of xanthine oxidase inhibition; format: biochemical; details: Lineweaver-Burk double reciprocal plots, xanthine as substrate
xanthine oxidase [3] = molecular target: T1, xanthine oxidase; assay: Xanthine oxidase inhibitory assay; format: biochemical

T1 sequence (P80457 whole entry): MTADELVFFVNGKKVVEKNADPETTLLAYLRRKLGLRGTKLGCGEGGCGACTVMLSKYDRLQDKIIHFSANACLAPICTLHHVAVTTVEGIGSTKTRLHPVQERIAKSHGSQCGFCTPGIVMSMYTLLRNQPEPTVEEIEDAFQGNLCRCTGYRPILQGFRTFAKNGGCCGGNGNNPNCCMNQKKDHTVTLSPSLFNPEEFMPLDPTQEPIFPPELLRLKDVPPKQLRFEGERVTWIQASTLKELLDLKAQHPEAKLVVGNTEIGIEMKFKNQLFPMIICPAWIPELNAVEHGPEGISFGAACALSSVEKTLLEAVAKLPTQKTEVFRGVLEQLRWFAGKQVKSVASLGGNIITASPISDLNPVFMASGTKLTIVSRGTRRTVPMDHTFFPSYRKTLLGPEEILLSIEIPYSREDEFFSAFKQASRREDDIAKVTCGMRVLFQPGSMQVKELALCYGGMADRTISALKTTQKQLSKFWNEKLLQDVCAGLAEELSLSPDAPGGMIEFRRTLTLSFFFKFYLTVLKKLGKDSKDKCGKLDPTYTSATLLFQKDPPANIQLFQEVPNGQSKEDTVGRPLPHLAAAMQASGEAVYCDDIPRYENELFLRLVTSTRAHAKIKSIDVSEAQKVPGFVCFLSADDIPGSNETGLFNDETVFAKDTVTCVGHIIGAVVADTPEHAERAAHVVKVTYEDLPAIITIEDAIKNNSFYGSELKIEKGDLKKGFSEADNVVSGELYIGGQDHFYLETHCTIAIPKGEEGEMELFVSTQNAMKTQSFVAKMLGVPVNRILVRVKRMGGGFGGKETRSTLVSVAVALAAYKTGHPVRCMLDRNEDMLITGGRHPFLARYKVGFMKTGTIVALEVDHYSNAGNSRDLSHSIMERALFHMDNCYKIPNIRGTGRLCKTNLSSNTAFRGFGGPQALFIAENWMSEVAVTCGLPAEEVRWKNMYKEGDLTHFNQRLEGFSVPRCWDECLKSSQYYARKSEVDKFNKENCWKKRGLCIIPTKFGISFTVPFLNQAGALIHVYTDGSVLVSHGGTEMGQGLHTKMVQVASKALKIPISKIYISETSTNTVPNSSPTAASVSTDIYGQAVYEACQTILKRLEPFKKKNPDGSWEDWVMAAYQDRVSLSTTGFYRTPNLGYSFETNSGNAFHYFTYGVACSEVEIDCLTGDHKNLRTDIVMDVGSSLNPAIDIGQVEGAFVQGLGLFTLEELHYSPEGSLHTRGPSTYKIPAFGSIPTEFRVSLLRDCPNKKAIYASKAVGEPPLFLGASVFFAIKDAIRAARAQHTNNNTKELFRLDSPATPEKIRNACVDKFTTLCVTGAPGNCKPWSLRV

SMILES: O=c1c(-c2ccc(O)cc2)coc2cc(O)cc(O)c12 [genistein]
type of inhibition (xanthine oxidase [1]; ref Lin et al., 2002): competitive

SMILES: COc1ccc(CCO[C@@H]2O[C@H](CO)[C@@H](OC(=O)/C=C/c3ccc(O)c(OC)c3)[C@H](O[C@@H]3O[C@@H](C)[C@H](O)[C@@H](O)[C@H]3O[C@@H]3O[C@H](CO)[C@@H](O)[C@H](O)[C@H]3O)[C@H]2O)cc1O [incanoside D]
inhibition of the xanthine oxidase enzyme (in words) (xanthine oxidase [1]): moderate inhibitors

SMILES: COC(=O)/C=C/c1ccc(O)c(O)c1 [methyl caffeate]
IC50 (xanthine oxidase [1]; ref Nguyen et al., 2006): 12.3 µM
inhibition type (xanthine oxidase [1]; ref Nguyen et al., 2006): competitive

SMILES: COc1ccc(CCO[C@@H]2O[C@H](CO[C@@H]3OC[C@H](O)[C@H](O)[C@H]3O)[C@@H](OC(=O)/C=C/c3ccc(O)c(OC)c3)[C@H](O[C@@H]3O[C@@H](C)[C@H](O)[C@@H](O)[C@H]3O)[C@H]2O)cc1O [angoroside C]
inhibition of the xanthine oxidase enzyme (in words) (xanthine oxidase [1]): moderate inhibitors

type of inhibition (xanthine oxidase [2]): competitive
SMILES: Oc1ncnc2[nH]ncc12 [Allopurinol]

SMILES: O=c1c(O)c(-c2ccc(O)c(O)c2)oc2cc(O)cc(O)c12 [quercetin]
type of inhibition (xanthine oxidase [1]; ref Lin et al., 2002): competitive

SMILES: O=c1c(O)c(-c2cc(O)c(O)c(O)c2)oc2cc(O)cc(O)c12 [myricetin]
type of inhibition (xanthine oxidase [1]; ref Lin et al., 2002): competitive

SMILES: O=C(O)/C=C/c1ccc(O)c(O)c1 [caffeic acid]
IC50 (xanthine oxidase [1]; ref Nguyen et al., 2006): 85.4 µM
inhibition type (xanthine oxidase [1]; ref Nguyen et al., 2006): competitive

IC50 (xanthine oxidase [3]): 23.3 ± 1.88 µM
type of inhibition (xanthine oxidase [2]): competitive
SMILES: O=C(O)/C=C/c1ccc(O)cc1 [Compound 5, p-coumaric acid]

SMILES: O=c1cc(-c2ccc(O)cc2)oc2cc(O)cc(O)c12 [apigenin]
type of inhibition (xanthine oxidase [1]; ref Lin et al., 2002): competitive

SMILES: O=c1cc(-c2ccc(O)c(O)c2)oc2cc(O)cc(O)c12 [luteolin]
Ki (xanthine oxidase [1]; read-out: inhibition constant (Ki), ref Yan et al., 2013): 2.38 µM
IC50 (xanthine oxidase [1]; ref Yan et al., 2013): 4.79 µM
type of inhibition (xanthine oxidase [1]; ref Yan et al., 2013): competitive

IC50 (xanthine oxidase [3]): 26.3 ± 3.36 µM
type of inhibition (xanthine oxidase [2]): competitive
SMILES: COc1ccc(/C=C/C(=O)O)cc1 [Compound 3, trans-4-methoxycinnamic acid]
